In ChEMBL document CHEMBL1201862, “PubChem BioAssay data set” (2004):
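Method: 48-hour compound exposure of cells in 96-well plates, five concentrations, linear interpolation of endpoints. Abbreviation: GI50, concentration required for 50% inhibition of growth.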 Calls of active or inactive are those of the source. No stated cut-off is given here; in the data, active = GI50 up to about 1.1 µM and inactive = higher.

What was measured:
Experiment in all cases: NCI-60 cell line screen, 48 h
HOP-62 = tested on: HOP-62
SF-295 = tested on: SF-295
OVCAR-3 = tested on: OVCAR-3
SF-539 = tested on: SF-539
NCI-H460 = tested on: NCI-H460
UO-31 = tested on: UO-31
M14 = tested on: M14
OVCAR-5 = tested on: OVCAR-5
HL-60 = tested on: HL-60
UACC-62 = tested on: UACC-62
RPMI-8226 = tested on: RPMI-8226
IGROV-1 = tested on: IGROV-1
NCI-H226 = tested on: NCI-H226
SK-MEL-2 = tested on: SK-MEL-2
UACC-257 = tested on: UACC-257
HOP-92 = tested on: HOP-92
SR = tested on: SR

Measured: GI50

Cc1ccc(NC(=O)CC2Sc3ccccc3NC2=O)c(C)c1 (stereo unspecified)
inactive: HOP-62 12.1 µM | SF-295 16.2 µM | OVCAR-3 12.2 µM | SF-539 14 µM | NCI-H460 11.4 µM | UO-31 13 µM | M14 12.4 µM | OVCAR-5 23.3 µM | HL-60 2.73 µM | UACC-62 12.2 µM | RPMI-8226 12.8 µM | IGROV-1 23.6 µM | NCI-H226 14.8 µM | SK-MEL-2 4.56 µM | UACC-257 2.59 µM | HOP-92 17.4 µM

O=C1CCNC/C1=C\c1ccccc1
inactive: HOP-62 29.1 µM | SF-295 26.9 µM | OVCAR-3 22.9 µM | SF-539 17.4 µM | NCI-H460 30.9 µM | UO-31 17 µM | M14 14 µM | OVCAR-5 24.7 µM | SR 25.2 µM | HL-60 16.3 µM | UACC-62 17.1 µM | RPMI-8226 24 µM | IGROV-1 29.9 µM | NCI-H226 24 µM | SK-MEL-2 54 µM | UACC-257 25.8 µM

CC(C)(C)C(=O)C(c1ccc(-c2cscn2)cc1)c1ccc(-c2cscn2)cc1
inactive: HOP-62 18.5 µM | SF-295 18.1 µM | OVCAR-3 28.1 µM | SF-539 23.6 µM | NCI-H460 40.5 µM | UO-31 44.4 µM | M14 97.5 µM | OVCAR-5 > 100 µM | HL-60 > 100 µM | UACC-62 21.7 µM | RPMI-8226 32.1 µM | IGROV-1 37.8 µM | NCI-H226 > 49.7 µM | SK-MEL-2 21.4 µM | UACC-257 76 µM | HOP-92 9.55 µM

CCOC(=O)C(=O)Nc1nc2ccc(OC)cc2s1
inactive: HOP-62 > 100 µM | SF-295 > 100 µM | OVCAR-3 > 100 µM | SF-539 > 100 µM | NCI-H460 > 100 µM | UO-31 > 100 µM | M14 > 100 µM | OVCAR-5 > 100 µM | HL-60 > 100 µM | UACC-62 > 100 µM | RPMI-8226 > 100 µM | IGROV-1 > 100 µM | NCI-H226 > 100 µM | SK-MEL-2 > 100 µM | UACC-257 > 100 µM | HOP-92 > 100 µM

Nc1ncnc2c1ncn2C1(CO)OC(CO)C(O)C1O (stereo unspecified)
inactive: HOP-62 > 100 µM | SF-295 > 100 µM | NCI-H460 > 100 µM | M14 > 100 µM | OVCAR-5 > 100 µM | SR > 100 µM | HL-60 > 100 µM | RPMI-8226 > 100 µM | NCI-H226 > 100 µM | SK-MEL-2 > 100 µM | UACC-257 > 100 µM | HOP-92 > 100 µM
